*1 amine or outer side, *2 acyl side, *3 side chain or, on linkers, in order; H or OH if unused. Where a SMILES comes first, the peptide text is derived from it. Side-chain parts run from the residue outwards. The star is where a group is joined. γGlu = O=C(O)[C@H](CCC(=O)[*:2])N[*:1]; Suc = O=C(CCC(=O)[*:2])[*:1]; Pentanoyl = CCCCC(=O)*

In this assay the target is T1, glucagon receptor (Homo sapiens, UniProt P47871).
T1 construct: expressed in transfected cells
Kind of assay: Assay (I) Glucagon activity (cAMP biosensor, FLIPR). The format is cell-based. As to conditions: HEK-293 cells with cloned glucagon receptor and cAMP biosensor; end point after 6 minutes. In outline: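 HEK-293 cells expressing glucagon receptor with membrane cAMP biosensor (ACTOne), calcium-dye loaded with probenecid and a PDE inhibitor.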

T1 sequence (P47871 26-477): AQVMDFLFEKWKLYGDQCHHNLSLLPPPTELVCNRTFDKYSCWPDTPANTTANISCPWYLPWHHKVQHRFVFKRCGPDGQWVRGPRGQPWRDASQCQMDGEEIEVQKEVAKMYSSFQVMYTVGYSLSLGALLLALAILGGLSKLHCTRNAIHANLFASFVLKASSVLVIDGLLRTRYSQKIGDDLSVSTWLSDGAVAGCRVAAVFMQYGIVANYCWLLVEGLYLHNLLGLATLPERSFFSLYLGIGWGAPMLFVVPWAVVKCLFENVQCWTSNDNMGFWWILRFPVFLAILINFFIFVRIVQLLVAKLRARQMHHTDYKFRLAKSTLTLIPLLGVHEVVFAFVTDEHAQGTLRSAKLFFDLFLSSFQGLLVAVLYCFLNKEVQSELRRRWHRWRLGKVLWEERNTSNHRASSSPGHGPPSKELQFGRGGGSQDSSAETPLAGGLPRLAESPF

`CC(=O)N[C@@H](CCC(=O)N[C@@H](CCC(=O)N[C@@H](CCC(=O)N[C@@H](CCC(=O)NCCCC[C@H](NC(=O)[C@@H](NC(=O)[C@H](Cc1ccccc1)NC(=O)[C@H](CC(=O)O)NC(=O)[C@H](C)NC(=O)[C@H](C)NC(=O)[C@H](CCCNC(=N)N)NC(=O)[C@H](CCCNC(=N)N)NC(=O)[C@@H](NC(=O)[C@H](CC(=O)O)NC(=O)[C@H](CC(C)C)NC(=O)[C@H](Cc1ccc(O)cc1)NC(=O)[C@H](CCCCN)NC(=O)[C@H](CO)NC(=O)[C@H](Cc1ccc(O)cc1)NC(=O)[C@H](CC(=O)O)NC(=O)[C@H](CO)NC(=O)[C@@H](NC(=O)[C@H](Cc1ccccc1)NC(=O)[C@@H](NC(=O)CNC(=O)[C@H](Cc1c[nH]cn1)NC(=O)[C@H](CO)NC(=O)[C@@H](N)Cc1c[nH]cn1)[C@@H](C)O)[C@@H](C)O)C(C)C)C(C)C)C(=O)N[C@@H](Cc1c[nH]c2ccccc12)C(=O)N[C@@H](CC(C)C)C(=O)N[C@@H](CC(C)C)C(=O)N[C@@H](CO)C(=O)N[C@H](C(=O)O)[C@@H](C)O)C(=O)O)C(=O)O)C(=O)O)C(=O)O` [Example 10, N^ε24-[(4S)-4-[[(4S)-4-[[(4S)-4-[[(4S)-4-acetamido-4-carboxybutanoyl]amino]-4-carboxybutanoyl]amino]-4-carboxybutanoyl]amino]-4-carboxybutanoyl]-[His3,Val16,Ala20,Lys24,Leu27,Ser28]-Glucagon] (H-HSHGTFTSDYSKYLDVRRAADFVK([γGlu-γGlu-γGlu-γGlu-Ac])WLLST-OH) displayed an EC50 of 0.0167 nM.
The result for `CCCCC(=O)N[C@@H](CCC(=O)N[C@@H](CCC(=O)N[C@@H](CCC(=O)N[C@@H](CCC(=O)NCCCC[C@H](NC(=O)[C@@H](NC(=O)[C@H](Cc1ccccc1)NC(=O)[C@H](CC(=O)O)NC(=O)[C@H](C)NC(=O)[C@H](C)NC(=O)[C@H](CCCNC(=N)N)NC(=O)[C@H](CCCNC(=N)N)NC(=O)[C@H](CC(C)C)NC(=O)[C@H](CC(=O)O)NC(=O)[C@H](CC(C)C)NC(=O)[C@H](Cc1ccc(O)cc1)NC(=O)[C@H](CCCNC(=N)N)NC(=O)[C@H](CO)NC(=O)[C@H](Cc1ccc(O)cc1)NC(=O)[C@H](CC(=O)O)NC(=O)[C@H](CO)NC(=O)[C@@H](NC(=O)[C@H](Cc1ccccc1)NC(=O)[C@@H](NC(=O)CNC(=O)[C@H](CCC(N)=O)NC(=O)[C@H](CO)NC(=O)[C@@H](N)Cc1c[nH]cn1)[C@@H](C)O)[C@@H](C)O)C(C)C)C(=O)N[C@@H](Cc1c[nH]c2ccccc12)C(=O)N[C@@H](CC(C)C)C(=O)N[C@@H](CC(C)C)C(=O)N[C@@H](CO)C(=O)N[C@H](C(=O)O)[C@@H](C)O)C(=O)O)C(=O)O)C(=O)O)C(=O)O` [Example 67] (H-HSQGTFTSDYSRYLDLRRAADFVK([γGlu-γGlu-γGlu-γGlu-Pentanoyl])WLLST-OH) reads 0.022 nM.
The same measure for `CC(=O)N[C@@H](CCC(=O)N[C@@H](CCC(=O)N[C@@H](CCC(=O)N[C@@H](CCC(=O)NCCCC[C@H](NC(=O)[C@@H](NC(=O)[C@H](Cc1ccccc1)NC(=O)[C@H](CC(=O)O)NC(=O)[C@H](CCC(N)=O)NC(=O)[C@H](C)NC(=O)[C@H](CCCNC(=N)N)NC(=O)[C@H](CCCNC(=N)N)NC(=O)[C@H](CO)NC(=O)[C@H](CCC(=O)O)NC(=O)[C@H](CC(C)C)NC(=O)[C@H](Cc1ccc(O)cc1)NC(=O)[C@H](CCCCN)NC(=O)[C@H](CO)NC(=O)[C@H](Cc1ccc(O)cc1)NC(=O)[C@H](CC(=O)O)NC(=O)[C@H](CO)NC(=O)[C@@H](NC(=O)[C@H](Cc1ccccc1)NC(=O)[C@@H](NC(=O)CNC(=O)[C@H](CCC(N)=O)NC(=O)[C@H](CO)NC(=O)[C@@H](N)Cc1c[nH]cn1)[C@@H](C)O)[C@@H](C)O)C(C)C)C(=O)N[C@@H](Cc1c[nH]c2ccccc12)C(=O)N[C@@H](CC(C)C)C(=O)N[C@@H](CC(C)C)C(=O)N[C@@H](CO)C(=O)N[C@H](C(=O)O)[C@@H](C)O)C(=O)O)C(=O)O)C(=O)O)C(=O)O` [Example 23, N^ε24-[(4S)-4-[[(4S)-4-[[(4S)-4-[[(4S)-4-acetamido-4-carboxybutanoyl]amino]-4-carboxybutanoyl]amino]-4-carboxybutanoyl]amino]-4-carboxybutanoyl]-[Glu15,Lys24,Leu27,Ser28]-Glucagon]: 0.0105 nM; for `CC(C)C[C@H](NC(=O)[C@H](CC(=O)O)NC(=O)[C@H](CC(C)C)NC(=O)[C@H](Cc1ccc(O)cc1)NC(=O)[C@H](CCCNC(=N)N)NC(=O)[C@H](CO)NC(=O)[C@H](Cc1ccc(O)cc1)NC(=O)[C@H](CC(=O)O)NC(=O)[C@H](CO)NC(=O)[C@@H](NC(=O)[C@H](Cc1ccccc1)NC(=O)[C@@H](NC(=O)CNC(=O)[C@H](CCC(N)=O)NC(=O)[C@H](CO)NC(=O)[C@@H](N)Cc1c[nH]cn1)[C@@H](C)O)[C@@H](C)O)C(=O)N[C@@H](CCCNC(=N)N)C(=O)N[C@@H](CCCNC(=N)N)C(=O)N[C@@H](C)C(=O)N[C@@H](C)C(=O)N[C@@H](CC(=O)O)C(=O)N[C@@H](Cc1ccccc1)C(=O)N[C@H](C(=O)N[C@@H](CCCCNC(=O)CC[C@H](NC(=O)CC[C@H](NC(=O)CC[C@H](NC(=O)CC[C@H](NC(=O)CCC(=O)O)C(=O)O)C(=O)O)C(=O)O)C(=O)O)C(=O)N[C@@H](Cc1c[nH]c2ccccc12)C(=O)N[C@@H](CC(C)C)C(=O)N[C@@H](CC(C)C)C(=O)N[C@@H](CO)C(=O)N[C@H](C(=O)O)[C@@H](C)O)C(C)C` [Example 66, N^ε24-[(4S)-4-carboxy-4-[[(4S)-4-carboxy-4-[[(4S)-4-carboxy-4-[[(4S)-4-carboxy-4-(3-carboxypropanoylamino)butanoyl]amino]butanoyl]amino]butanoyl]amino]butanoyl]-[Arg^12,Leu^16,Ala^20,Lys^24,Leu^27,Ser^28]-Glucagon] (H-HSQGTFTSDYSRYLDLRRAADFVK([γGlu-γGlu-γGlu-γGlu-Suc])WLLST-OH): 0.02 nM.
The same measure for `CC(=O)N[C@@H](CCC(=O)N[C@@H](CCC(=O)N[C@@H](CCC(=O)N[C@@H](CCC(=O)NCCCC[C@H](NC(=O)[C@@H](NC(=O)[C@H](Cc1ccccc1)NC(=O)[C@H](CCC(=O)O)NC(=O)[C@H](C)NC(=O)[C@H](C)NC(=O)[C@H](CCCNC(=N)N)NC(=O)[C@H](CCCNC(=N)N)NC(=O)[C@@H](NC(=O)[C@H](CC(=O)O)NC(=O)[C@H](CC(C)C)NC(=O)[C@H](Cc1ccc(O)cc1)NC(=O)[C@H](CCCCN)NC(=O)[C@H](CO)NC(=O)[C@H](Cc1ccc(O)cc1)NC(=O)[C@H](CC(=O)O)NC(=O)[C@H](CO)NC(=O)[C@@H](NC(=O)[C@H](Cc1ccccc1)NC(=O)[C@@H](NC(=O)CNC(=O)[C@H](CCC(N)=O)NC(=O)CNC(=O)[C@@H](N)Cc1c[nH]cn1)[C@@H](C)O)[C@@H](C)O)C(C)C)C(C)C)C(=O)N[C@@H](Cc1c[nH]c2ccccc12)C(=O)N[C@@H](CC(C)C)C(=O)N[C@@H](CC(C)C)C(=O)N[C@@H](CO)C(=O)N[C@H](C(=O)O)[C@@H](C)O)C(=O)O)C(=O)O)C(=O)O)C(=O)O` [Example 49, N^ε24-[(4S)-4-[[(4S)-4-[[(4S)-4-[[(4S)-4-acetamido-4-carboxybutanoyl]amino]-4-carboxybutanoyl]amino]-4-carboxybutanoyl]amino]-4-carboxybutanoyl]-[Gly^2,Val^16,Ala^20,Glu^21,Lys^24,Leu^27,Ser^28]-Glucagon] (H-HGQGTFTSDYSKYLDVRRAAEFVK([γGlu-γGlu-γGlu-γGlu-Ac])WLLST-OH): 0.054 nM; for `CC(=O)N[C@@H](CCC(=O)N[C@@H](CCC(=O)N[C@@H](CCC(=O)N[C@@H](CCC(=O)NCCCC[C@H](NC(=O)[C@@H](NC(=O)[C@H](Cc1ccccc1)NC(=O)[C@H](CC(=O)O)NC(=O)[C@H](CCC(N)=O)NC(=O)[C@H](C)NC(=O)[C@H](CCCNC(=N)N)NC(=O)[C@H](CCCNC(=N)N)NC(=O)[C@H](CC(C)C)NC(=O)[C@H](CC(=O)O)NC(=O)[C@H](CC(C)C)NC(=O)[C@H](Cc1ccc(O)cc1)NC(=O)[C@H](CCCCN)NC(=O)[C@H](CO)NC(=O)[C@H](Cc1ccc(O)cc1)NC(=O)[C@H](CC(=O)O)NC(=O)[C@H](CO)NC(=O)[C@@H](NC(=O)[C@H](Cc1ccccc1)NC(=O)[C@@H](NC(=O)CNC(=O)[C@H](CCC(N)=O)NC(=O)[C@H](C)NC(=O)[C@@H](N)Cc1c[nH]cn1)[C@@H](C)O)[C@@H](C)O)C(C)C)C(=O)N[C@@H](Cc1c[nH]c2ccccc12)C(=O)N[C@@H](CC(C)C)C(=O)N[C@@H](CC(C)C)C(=O)N[C@@H](CO)C(=O)N[C@H](C(=O)O)[C@@H](C)O)C(=O)O)C(=O)O)C(=O)O)C(=O)O` [Example 42] (H-HAQGTFTSDYSKYLDLRRAQDFVK([γGlu-γGlu-γGlu-γGlu-Ac])WLLST-OH): 0.008 nM; for `CC(=O)N[C@@H](CCC(=O)N[C@@H](CCC(=O)N[C@@H](CCC(=O)N[C@@H](CCC(=O)NCCCC[C@H](NC(=O)[C@@H](NC(=O)[C@H](Cc1ccccc1)NC(=O)[C@H](CC(=O)O)NC(=O)[C@H](CCC(N)=O)NC(=O)[C@H](C)NC(=O)[C@H](CCCNC(=N)N)NC(=O)[C@H](CCCNC(=N)N)NC(=O)[C@@H](NC(=O)[C@H](CCC(=O)O)NC(=O)[C@H](CC(C)C)NC(=O)[C@H](Cc1ccc(O)cc1)NC(=O)[C@H](CCCCN)NC(=O)[C@H](CO)NC(=O)[C@H](Cc1ccc(O)cc1)NC(=O)[C@H](CC(=O)O)NC(=O)[C@H](CO)NC(=O)[C@@H](NC(=O)[C@H](Cc1ccccc1)NC(=O)[C@@H](NC(=O)CNC(=O)[C@H](Cc1c[nH]cn1)NC(=O)[C@H](CO)NC(=O)[C@@H](N)Cc1c[nH]cn1)[C@@H](C)O)[C@@H](C)O)[C@@H](C)O)C(C)C)C(=O)N[C@@H](Cc1c[nH]c2ccccc12)C(=O)N[C@@H](CC(C)C)C(=O)N[C@@H](CC(C)C)C(=O)N[C@@H](CO)C(=O)N[C@H](C(=O)O)[C@@H](C)O)C(=O)O)C(=O)O)C(=O)O)C(=O)O` [Example 31, N^ε24-[(4S)-4-[[(4S)-4-[[(4S)-4-[[(4S)-4-acetamido-4-carboxybutanoyl]amino]-4-carboxybutanoyl]amino]-4-carboxybutanoyl]amino]-4-carboxybutanoyl]-[His3,Glu15,Thr16,Lys24,Leu27,Ser28]-Glucagon] (H-HSHGTFTSDYSKYLETRRAQDFVK([γGlu-γGlu-γGlu-γGlu-Ac])WLLST-OH): 0.013 nM.

For orientation: EC50 means the concentration giving half of the maximal effect. A lower EC50 goes with a more potent agent.

Source of the values: US20140031278A1, “Novel Glucagon Analogues” (NOVO NORDISK A/S, priority 2011, published 2014).
